# Experimental data published in patent publication US8192962B2, “Processes for detecting toxic substances” (Daikin Industries, Ltd., priority 2001, dated 2012).
# System: Energy system protein genes
# Experiment: DNA chip mRNA expression in yeast, energy system protein genes (Table 4)
# Assay type: cell-based, Saccharomyces cerevisiae S288C
# In short: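 S. cerevisiae S288C grown at 25° C in YPD were exposed in log phase for two hours to one toxic chemical at a growth-inhibiting, non-lethal concentration; untreated cells served as control. Poly(A) mRNA was reverse-transcribed with Cy3/Cy5-dUTP and hybridized to a whole-genome yeast DNA chip at 65° C for over 12 hours; values are fluorescence ratios versus untreated.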
smiles,measurement,setting,value
"C[S+](C)[O-] [(15), dimethylsulfoxide]",The level of expressed mRNA in the presence of chemical substance/The level of expressed mRNA in the absence of chemical substance,yeast gene YJL052W,2.3
same,The level of expressed mRNA in the presence of chemical substance/The level of expressed mRNA in the absence of chemical substance,"yeast gene YJL166W, cells incubated two hours with the chemical substance",0.5
same,The level of expressed mRNA in the presence of chemical substance/The level of expressed mRNA in the absence of chemical substance,yeast gene YJR009C,2.1
same,The level of expressed mRNA in the presence of chemical substance/The level of expressed mRNA in the absence of chemical substance,yeast gene YJR048W,0.6
same,The level of expressed mRNA in the presence of chemical substance/The level of expressed mRNA in the absence of chemical substance,yeast gene YJR155W,2.6
same,The level of expressed mRNA in the presence of chemical substance/The level of expressed mRNA in the absence of chemical substance,"yeast gene YKL016C, cells incubated two hours with the chemical substance",0.7
same,The level of expressed mRNA in the presence of chemical substance/The level of expressed mRNA in the absence of chemical substance,yeast gene YKL035W,1.0
same,The level of expressed mRNA in the presence of chemical substance/The level of expressed mRNA in the absence of chemical substance,"yeast gene YKL060C, cells incubated two hours with the chemical substance",1.6
same,The level of expressed mRNA in the presence of chemical substance/The level of expressed mRNA in the absence of chemical substance,"yeast gene YKL085W, cells incubated two hours with the chemical substance",0.5
same,The level of expressed mRNA in the presence of chemical substance/The level of expressed mRNA in the absence of chemical substance,yeast gene YKL150W,0.9
same,The level of expressed mRNA in the presence of chemical substance/The level of expressed mRNA in the absence of chemical substance,yeast gene YKL152C,1.8
same,The level of expressed mRNA in the presence of chemical substance/The level of expressed mRNA in the absence of chemical substance,"yeast gene YKR058W, cells incubated two hours with the chemical substance, 25° C., YPD medium",0.5
same,The level of expressed mRNA in the presence of chemical substance/The level of expressed mRNA in the absence of chemical substance,yeast gene YKR097W,2.5
same,The level of expressed mRNA in the presence of chemical substance/The level of expressed mRNA in the absence of chemical substance,"yeast gene YLL041C, cells incubated two hours with the chemical substance",0.4
same,The level of expressed mRNA in the presence of chemical substance/The level of expressed mRNA in the absence of chemical substance,"yeast gene YLR038C, cells incubated two hours with the chemical substance",0.7
same,The level of expressed mRNA in the presence of chemical substance/The level of expressed mRNA in the absence of chemical substance,"yeast gene YLR164W, cells incubated two hours with the chemical substance",0.7
same,The level of expressed mRNA in the presence of chemical substance/The level of expressed mRNA in the absence of chemical substance,"yeast gene YLR174W, cells incubated two hours with the chemical substance",0.8
same,The level of expressed mRNA in the presence of chemical substance/The level of expressed mRNA in the absence of chemical substance,yeast gene YLR273C,2.6
same,The level of expressed mRNA in the presence of chemical substance/The level of expressed mRNA in the absence of chemical substance,"yeast gene YLR295C, cells incubated two hours with the chemical substance, 25° C., YPD medium",0.5
same,The level of expressed mRNA in the presence of chemical substance/The level of expressed mRNA in the absence of chemical substance,"yeast gene YLR304C, cells incubated two hours with the chemical substance",1.6
same,The level of expressed mRNA in the presence of chemical substance/The level of expressed mRNA in the absence of chemical substance,yeast gene YLR345W,1.0
same,The level of expressed mRNA in the presence of chemical substance/The level of expressed mRNA in the absence of chemical substance,"yeast gene YLR377C, cells incubated two hours with the chemical substance",0.8
same,The level of expressed mRNA in the presence of chemical substance/The level of expressed mRNA in the absence of chemical substance,"yeast gene YLR395C, cells incubated two hours with the chemical substance",0.4
same,The level of expressed mRNA in the presence of chemical substance/The level of expressed mRNA in the absence of chemical substance,yeast gene YML054C,1.1
same,The level of expressed mRNA in the presence of chemical substance/The level of expressed mRNA in the absence of chemical substance,yeast gene YML087C,0.3
same,The level of expressed mRNA in the presence of chemical substance/The level of expressed mRNA in the absence of chemical substance,yeast gene YML100W,1.8
same,The level of expressed mRNA in the presence of chemical substance/The level of expressed mRNA in the absence of chemical substance,"yeast gene YML120C, cells incubated two hours with the chemical substance",0.5
same,The level of expressed mRNA in the presence of chemical substance/The level of expressed mRNA in the absence of chemical substance,yeast gene YML125C,1.9
same,The level of expressed mRNA in the presence of chemical substance/The level of expressed mRNA in the absence of chemical substance,yeast gene YMR089C,1.8
same,The level of expressed mRNA in the presence of chemical substance/The level of expressed mRNA in the absence of chemical substance,yeast gene YMR105C,0.9
same,The level of expressed mRNA in the presence of chemical substance/The level of expressed mRNA in the absence of chemical substance,yeast gene YMR118C,0.9
same,The level of expressed mRNA in the presence of chemical substance/The level of expressed mRNA in the absence of chemical substance,"yeast gene YMR261C, cells incubated two hours with the chemical substance",0.8
same,The level of expressed mRNA in the presence of chemical substance/The level of expressed mRNA in the absence of chemical substance,yeast gene YNL037C,0.9
same,The level of expressed mRNA in the presence of chemical substance/The level of expressed mRNA in the absence of chemical substance,yeast gene YNL071W,1.1
same,The level of expressed mRNA in the presence of chemical substance/The level of expressed mRNA in the absence of chemical substance,yeast gene YNL237W,1.6
same,The level of expressed mRNA in the presence of chemical substance/The level of expressed mRNA in the absence of chemical substance,yeast gene YNL331C,2.3
same,The level of expressed mRNA in the presence of chemical substance/The level of expressed mRNA in the absence of chemical substance,"yeast gene YOL086C, cells incubated two hours with the chemical substance",1.6
same,The level of expressed mRNA in the presence of chemical substance/The level of expressed mRNA in the absence of chemical substance,yeast gene YOL126C,1.4
same,The level of expressed mRNA in the presence of chemical substance/The level of expressed mRNA in the absence of chemical substance,yeast gene YOL157C,1.1
same,The level of expressed mRNA in the presence of chemical substance/The level of expressed mRNA in the absence of chemical substance,yeast gene YOL165C,3.0
same,The level of expressed mRNA in the presence of chemical substance/The level of expressed mRNA in the absence of chemical substance,yeast gene YOR136W,1.2
same,The level of expressed mRNA in the presence of chemical substance/The level of expressed mRNA in the absence of chemical substance,yeast gene YOR221C,1.0
same,The level of expressed mRNA in the presence of chemical substance/The level of expressed mRNA in the absence of chemical substance,yeast gene YOR347C,2.0
same,The level of expressed mRNA in the presence of chemical substance/The level of expressed mRNA in the absence of chemical substance,"yeast gene YPL031C, cells incubated two hours with the chemical substance",0.7
same,The level of expressed mRNA in the presence of chemical substance/The level of expressed mRNA in the absence of chemical substance,yeast gene YPL088W,3.2
same,The level of expressed mRNA in the presence of chemical substance/The level of expressed mRNA in the absence of chemical substance,yeast gene YPL171C,1.4
same,The level of expressed mRNA in the presence of chemical substance/The level of expressed mRNA in the absence of chemical substance,yeast gene YPL240C,1.2
same,The level of expressed mRNA in the presence of chemical substance/The level of expressed mRNA in the absence of chemical substance,yeast gene YPL271W,0.8
same,The level of expressed mRNA in the presence of chemical substance/The level of expressed mRNA in the absence of chemical substance,yeast gene YPR006C,0.7
same,The level of expressed mRNA in the presence of chemical substance/The level of expressed mRNA in the absence of chemical substance,yeast gene YPR026W,3.1
